PMC12193579, “Pro-Apoptotic Activity of 1-(4,5,6,7-Tetrabromo-1H-benzimidazol-1-yl)propan-2-one, an Intracellular Inhibitor of PIM-1 Kinase in Acute Lymphoblastic Leukemia and Breast Cancer Cells” (International Journal of Molecular Sciences, 2025)

Tests used:
[1] = test system: CK2 in CCRF-CEM cells (Ser529 in NF-κB p65); assay: PhosFlow analysis of NF-κB p65 Ser529 phosphorylation, CCRF-CEM; type: cell-based, human; settings: 16 µM, 24 h
Description: CCRF-CEM cells were prepared following the BD PhosFlow™ Protocol for Human PBMCs using NF-κB p65 (pS529)-PE (#558423), BD PhosFlow™ Perm Buffer III (#558050), Cytofix Fixation Buffer (#554655), and Stain Buffer FBS (#554656), all obtained from Becton Dickinson. Flow cytometric analysis was performed using a BD Accuri C6 Plus cytometer (Becton Dickinson) according to the manufacturer’s instructions.

MCF-7 (breast carcinoma) = assay: MTT-based viability assay, MCF-7; type: cell-based, human
Description: (§1) 3. The cytotoxicity of the newly obtained inhibitors, i.e., 1, 2, and 4 was tested towards four cell lines, i.e., CCRF-CEM (acute lymphoblastic leukemia ALL), MCF-7 (breast carcinoma), MDA-MB-231 (triple negative breast carcinoma), and Vero (Cercopithecus aethiops kidney).
(§2) The CCRF-CEM (acute lymphoblastic leukemia, ALL) and MDA-MB-231 (triple-negative breast adenocarcinoma) cell lines were obtained from the European Collection of Authenticated Cell Cultures (ECACC), while the MCF-7 (hormone-dependent breast adenocarcinoma) and Vero (Cercopithecus aethiops kidney) cell lines were purchased from the American Type Culture Collection (ATCC, Manassas, VA, USA). CCRF-CEM cells were maintained in RPMI-1640 medium, whereas MCF-7 and MDA-MB-231 cells were cultured in DMEM (Sigma-Aldrich Chemical Company, St. Louis, MO, USA). Vero cells were cultured in minimum essential medium eagle (MEM; Sigma-Aldrich). All media were supplemented with 10% fetal bovine serum (FBS), 2 mM L-glutamine, and antibiotics (100 U/mL penicillin and 100 µg/mL streptomycin) (Sigma-Aldrich). Cells were grown in 75-cm^2 culture flasks (Googlab Scientific, Rakocin, Poland) in a humidified atmosphere containing 5% CO2 at 37 °C. All experiments were performed using exponentially growing cultures. Stock solutions of the test compounds were prepared in DMSO and stored at –80 °C for up to one month.
(§3) Following incubation with the tested compounds, the MTT assay was carried out as previously described. Optical density was measured at 570 nm using a BioTek microplate reader (Winooski, VT, USA). All measurements were performed in at least three independent biological replicates.

[2] = test system: Vero (Cercopithecus aethiops kidney); assay: MTT-based viability assay, Vero; type: cell-based; settings: Chlorocebus sabaeus, MTT, 48 h, non-cancerous cells, read-out: IC50 [µM] Vero
Description: as §1, §2, §3

[3] = test system: PIM-1 kinase in MCF-7 cells (Ser112 in BAD); assay: Western blot of phosphorylated BAD (Ser112), marker of PIM kinase activity, MCF-7; type: cell-based, human; settings: 16 µM, 24 h, untreated cells = 1
Description: (§4) After 24 h of treatment, we assessed site-specific phosphorylation of Ser529 in NF-κB p65 and Ser112 in BAD—a marker of PIM kinase activity—using Western blot analysis (Figure 8). The data for BAD confirmed intracellular inhibition of this kinase by the tested compounds in both cell lines in a dose-dependent manner. A statistically significant decrease in phosphorylated BAD was observed following treatment with 16 µM of compound 1, with relative protein levels reduced to 0.48 and 0.46 in CCRF-CEM and MCF-7 cells, respectively (Figure 8a–c).
(§5) Exponentially growing CCRF-CEM or MCF-7 cells were seeded at a density of 6 × 10^5 cells per 6 cm dish. Compounds were then added, with a final DMSO concentration of 0.5%. Cell lysates were prepared as previously described. The ECL substrate was used for signal detection, and the immunoblots were scanned using a G:BOX Chemi imaging system (Syngene, Cambridge, UK) equipped with GeneSys software, Version 1.4.3.0 (Syngene, Cambridge, UK).
(§6) For densitometric analysis, immunoblots were scanned using the G:BOX Chemi system (Syngene), and the band intensities of phosphorylated and total proteins were quantified with GeneSys software (Syngene, Cambridge, UK). The levels of phosphorylated proteins were normalized to GAPDH, with the value for untreated cells set to 1, and subsequently expressed as a percentage relative to the appropriate control.

CCRF-CEM cells [4] = assay: annexin V/propidium iodide apoptosis, flow cytometry, CCRF-CEM; type: cell-based, human; settings: 48 h, annexin V binding
Description: The results obtained for CCRF-CEM and MCF-7 are shown in Figure 3 and Figure 4, respectively. […] 1, 79.6% of cells were apoptotic.
CCRF-CEM cells were seeded in 24-well plates at a density of 2 × 10^5 cells/mL. The cells were treated with the tested compounds at concentrations of 8, 16, and 32 µM, followed by incubation for 48 h. After treatment, the cells were harvested and processed according to the previously described protocol. Flow cytometric measurements were conducted within 1 h of cell labeling. Viable, necrotic, early apoptotic, and late apoptotic cells were identified using a BD Accuri C6 Plus flow cytometer and analyzed with BD Accuri C6 Plus software, version 1.0.34.1 (BD Biosciences, San Jose, CA, USA).

CCRF-CEM cells [5] = assay: mitochondrial membrane potential (ΔΨm) JC-1 assay, CCRF-CEM; type: cell-based, human; settings: 48 h
Description: (§7) The mitochondrial membrane potential was evaluated by flow cytometry using 5,5′,6,6′-tetrachloro-1,1′,3,3′-tetraethylbenzimidazolocarbocyanine iodide (JC-1; Sigma-Aldrich), as previously described.

MCF-7 cells = assay: mitochondrial membrane potential (ΔΨm) JC-1 assay, MCF-7; type: cell-based, human; settings: 48 h
Description: as §7

[6] = test system: CK2 in CCRF-CEM cells (Ser529 in NF-κB p65); assay: Western blot of phosphorylated p65 (Ser529), intracellular CK2 inhibition, CCRF-CEM; type: cell-based, human; settings: 16 µM, 24 h, untreated cells = 1
Description: as §4, §5, §6

PIM-1 kinase = target: T1, PIM-1 kinase (Homo sapiens, UniProt P11309); assay: radiometric P81 filter isotopic kinase assay, PIM-1; type: biochemical
T1 construct: made in house
T1 sequence (P11309 whole entry): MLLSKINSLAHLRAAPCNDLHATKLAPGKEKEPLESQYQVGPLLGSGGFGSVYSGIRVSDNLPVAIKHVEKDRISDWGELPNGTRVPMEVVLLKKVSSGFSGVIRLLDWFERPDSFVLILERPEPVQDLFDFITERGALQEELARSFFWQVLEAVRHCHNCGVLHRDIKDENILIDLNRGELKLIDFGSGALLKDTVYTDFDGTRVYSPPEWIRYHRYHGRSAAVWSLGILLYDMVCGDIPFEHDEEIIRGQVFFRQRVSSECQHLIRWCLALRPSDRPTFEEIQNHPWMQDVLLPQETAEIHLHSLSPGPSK
Description: Synthetic peptide […] served as the substrate for CK2, while peptide […] was used as the substrate for PIM-1.
The synthesized compounds were evaluated for their inhibitory activity against human CK2α, the human CK2 holoenzyme, and PIM-1 using the P81 filter-based isotopic assay, as previously described. […] The experimental data were fitted to a dose–response curve using non-linear regression analysis (variable slope) Y = Bottom + (Top − Bottom)/(1 + 10^((LogIC50 − X) × HillSlope) equation in GraphPad Prism (Prism 9, version 9.0.1).

[7] = test system: PIM-1 kinase in CCRF-CEM cells (Ser112 in BAD); assay: Western blot of phosphorylated BAD (Ser112), marker of PIM kinase activity, CCRF-CEM; type: cell-based, human; settings: 16 µM, 24 h, untreated cells = 1
Description: as §4, §5, §6

[8] = test system: CCRF-CEM (acute lymphoblastic leukemia); assay: MTT-based viability assay, CCRF-CEM; type: cell-based, human
Description: as §1, §2, §3

[9] = IC50 for Vero/IC50 for cancer cells

IC50 (MCF-7 (breast carcinoma); Homo sapiens, MCF7, MTT, 48 h, read-out: IC50 [µM] MCF-7): 17.1 ± 2.07 µM
IC50 (PIM-1 kinase): 0.52 ± 0.02 µM
remaining activity at 2 µM (PIM-1 kinase; cpd. concentration 2 μM, read-out: PIM-1 Residual Activity [%]): 22.4 ± 0.9%
remaining activity at 5 µM (PIM-1 kinase; cpd. concentration 5 μM, read-out: PIM-1 Residual Activity [%]): 10.3 ± 0.7%
remaining activity at 20 µM (PIM-1 kinase; cpd. concentration 20 μM, read-out: PIM-1 Residual Activity [%]): 2.9 ± 0.2%
IC50 ([8]; Homo sapiens, CCRF-CEM, MTT, 48 h, read-out: IC50 [µM] CCRF-CEM): 12.4 ± 0.82 µM
Structure (SMILES): CC(=O)Cn1cnc2c(Br)c(Br)c(Br)c(Br)c21 [compound 1, 1-(4,5,6,7-tetrabromo-1H-benzimidazol-1-yl)propan-2-one]
p65-P-negative CCRF-CEM cells [1]: 29%
SI (selectivity index) MCF-7 (MCF-7 (breast carcinoma); [9]): 1.18
IC50 [2]: 20.2 ± 3.59 µM
relative level of phosphorylated BAD (Ser112), MCF-7 [3]: 0.46
apoptotic CCRF-CEM cells (CCRF-CEM cells [4]; 8 µM): 23.5%
apoptotic CCRF-CEM cells (CCRF-CEM cells [4]; 16 µM): 79.6%
apoptotic CCRF-CEM cells (CCRF-CEM cells [4]; 32 µM): ~98%
CCRF-CEM cells with reduced ΔΨm (CCRF-CEM cells [5]; 16 µM): 76%
CCRF-CEM cells with reduced ΔΨm (CCRF-CEM cells [5]; 32 µM): 99.4%
MCF-7 cells with reduced ΔΨm (MCF-7 cells; 16 µM): 26%
MCF-7 cells with reduced ΔΨm (MCF-7 cells; 32 µM): 19%
relative level of phosphorylated p65 (Ser529), CCRF-CEM [6]: 0.46
relative level of phosphorylated BAD (Ser112), CCRF-CEM [7]: 0.48
SI (selectivity index) CCRF-CEM [8, 9]: 1.62
